Reference: PubChem BioAssay (NCI)
Values joined by “and” are separate entries in the source; they are usually repeats but may differ in a detail not shown here. Equal entries are not always repeated.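 The compound was tested at five concentrations on cells cultured in 96-well plates, with a 48-hour exposure period. GI50: concentration for 50% inhibition of growth. TGI marks complete inhibition of growth.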

Tests used:
Assay in all cases: NCI anticancer screen, dose series, 48 h
M14 melanoma = test system: M14 melanoma
NCI-H460 lung = test system: NCI-H460 lung
RXF 393 renal = test system: RXF 393 renal
EKVX NSCLC = test system: EKVX NSCLC
KM12 colon = test system: KM12 colon
NCI-H226 lung = test system: NCI-H226 lung
NCI/ADR-RES ovarian = test system: NCI/ADR-RES ovarian
MDA-MB-231 breast = test system: MDA-MB-231 breast
MDA-MB-435 = test system: MDA-MB-435
MDA-N = test system: MDA-N

CC1(c2ccc[n+](Cc3ccccc3)c2)OCCO1
TGI (M14 melanoma): > 100 µM
TGI (NCI-H460 lung): > 100 µM
TGI (RXF 393 renal): > 100 µM
TGI (EKVX NSCLC): > 100 µM
TGI (KM12 colon): > 100 µM
TGI (NCI-H226 lung): > 100 µM

O=C1C(=O)c2ccccc2C(O)=C1CCCc1ccc(Oc2ccccc2)cc1
TGI (M14 melanoma): 24.5 µM
TGI (NCI-H460 lung): 41.9 µM
TGI (RXF 393 renal): 64.1 µM
TGI (EKVX NSCLC): > 100 µM
TGI (KM12 colon): > 100 µM
TGI (NCI-H226 lung): 47.9 µM

COC(=O)[C@H]1CO[C@H]2C/C(C)=C/CC/C(C)=C/CC[C@@]3(C)O[C@@H]3C[C@H]21
TGI (M14 melanoma): > 50 µM
TGI (NCI-H460 lung): 21.9 µM
TGI (RXF 393 renal): 42.6 µM
TGI (EKVX NSCLC): > 50 µM
TGI (NCI/ADR-RES ovarian): 29 µM
TGI (MDA-MB-231 breast): 40.6 µM
TGI (MDA-MB-435): 25.1 µM
TGI (KM12 colon): 18.4 µM
TGI (NCI-H226 lung): 29.2 µM

N#CC(c1nc2ccccc2nc1Cl)S(=O)(=O)c1ccccc1 (stereo not drawn)
TGI (M14 melanoma): > 100 µM
TGI (NCI-H460 lung): > 100 µM
TGI (EKVX NSCLC): > 100 µM
TGI (KM12 colon): > 100 µM
TGI (NCI-H226 lung): > 100 µM

O=C(Cn1c(C(=O)/C=C/c2cccs2)nc2ccccc21)c1ccc(Cl)cc1
TGI (M14 melanoma): 40.7 µM
TGI (MDA-N): 56.7 µM
TGI (NCI-H460 lung): 25.8 µM
TGI (RXF 393 renal): > 100 µM
TGI (NCI/ADR-RES ovarian): 38.4 µM
TGI (MDA-MB-231 breast): 46 µM
TGI (MDA-MB-435): > 100 µM
TGI (KM12 colon): 46.6 µM
TGI (NCI-H226 lung): > 100 µM

COc1ccc2c(c1)c(CC(=O)O)c(C)n2C(=O)c1ccc(Cl)cc1
TGI (M14 melanoma): > 100 µM
TGI (MDA-N): > 100 µM
TGI (NCI-H460 lung): > 100 µM
TGI (EKVX NSCLC): > 100 µM
TGI (NCI/ADR-RES ovarian): > 100 µM
TGI (MDA-MB-231 breast): > 100 µM
TGI (MDA-MB-435): > 100 µM
TGI (KM12 colon): > 100 µM
TGI (NCI-H226 lung): > 100 µM

COc1ccccc1NC(=O)CC(=O)N1N=C(C)C(N=Nc2ccc(C(=O)O)cc2)C1=O (stereo not drawn)
TGI (M14 melanoma): > 100 µM
TGI (MDA-N): > 100 µM
TGI (RXF 393 renal): > 100 µM
TGI (EKVX NSCLC): > 100 µM
TGI (NCI/ADR-RES ovarian): > 100 µM
TGI (MDA-MB-231 breast): > 100 µM
TGI (MDA-MB-435): > 100 µM
TGI (KM12 colon): > 100 µM

Cc1cc(N2CCCC2)nc(N(CCNc2ccnc3cc(Cl)ccc23)Cc2ccco2)n1
GI50 (M14 melanoma): 2.93 µM
TGI (M14 melanoma): > 100 µM
GI50 (NCI-H460 lung): 2.99 µM
TGI (NCI-H460 lung): > 100 µM
GI50 (RXF 393 renal): 2.14 µM
TGI (RXF 393 renal): 6.74 µM
GI50 (EKVX NSCLC): 5.7 µM
TGI (EKVX NSCLC): > 100 µM
GI50 (NCI/ADR-RES ovarian): 2.99 µM
TGI (NCI/ADR-RES ovarian): 79.6 µM
GI50 (MDA-MB-231 breast): 3.14 µM
TGI (MDA-MB-231 breast): 23.7 µM
GI50 (MDA-MB-435): 3.33 µM
TGI (MDA-MB-435): > 100 µM
GI50 (KM12 colon): 3.86 µM
TGI (KM12 colon): > 100 µM
GI50 (NCI-H226 lung): 3.2 µM
TGI (NCI-H226 lung): > 100 µM

CC1(C)C2C=CC1(C)C1(CC2)OCCO1 (stereo not drawn)
TGI (M14 melanoma): > 100 µM
TGI (MDA-N): > 100 µM
TGI (NCI-H460 lung): > 100 µM
TGI (RXF 393 renal): > 100 µM
TGI (NCI/ADR-RES ovarian): > 100 µM
TGI (MDA-MB-231 breast): > 100 µM
TGI (MDA-MB-435): > 100 µM
TGI (KM12 colon): > 100 µM
TGI (NCI-H226 lung): > 100 µM

O=C1c2cc3c(cc2CC12Cc1ccc4c(c1C2=O)CCCC4)CCCC3 (stereo not drawn)
TGI (M14 melanoma): > 100 µM
TGI (MDA-N): > 100 µM
TGI (NCI-H460 lung): > 100 µM
TGI (RXF 393 renal): > 100 µM
TGI (EKVX NSCLC): > 100 µM
TGI (NCI/ADR-RES ovarian): > 100 µM
TGI (MDA-MB-231 breast): > 100 µM
TGI (MDA-MB-435): > 100 µM

COc1ccc(C2=NN(c3ccccc3)C[N+](c3ccc(OC)cc3)=N2)cc1
TGI (NCI-H460 lung): > 100 µM
TGI (RXF 393 renal): 72.1 µM
TGI (EKVX NSCLC): > 100 µM
TGI (KM12 colon): 54.7 µM
TGI (NCI-H226 lung): 64.6 µM

CCOP(=O)(OCC)C1CC(n2cc(C)c(=O)[nH]c2=O)OC1CO (stereo not drawn)
TGI (M14 melanoma): > 100 µM
TGI (MDA-N): > 100 µM
TGI (NCI-H460 lung): > 100 µM
TGI (RXF 393 renal): > 100 µM
GI50 (EKVX NSCLC): 44.1 µM and > 100 µM
TGI (EKVX NSCLC): > 100 µM
TGI (MDA-MB-231 breast): > 100 µM
TGI (KM12 colon): > 100 µM
TGI (NCI-H226 lung): > 100 µM

NNC(=O)Cn1c2ccc(Br)cc2c2nc3ccccc3nc21
TGI (M14 melanoma): > 100 µM
TGI (MDA-N): > 100 µM
TGI (RXF 393 renal): > 100 µM
TGI (EKVX NSCLC): > 100 µM
TGI (NCI/ADR-RES ovarian): > 100 µM
TGI (MDA-MB-231 breast): > 100 µM
TGI (MDA-MB-435): > 100 µM
TGI (KM12 colon): > 100 µM
TGI (NCI-H226 lung): > 100 µM

CC[N+]1(C)CCC(O)(c2ccc(Cl)c(Cl)c2)C(C(=O)c2ccc(Cl)c(Cl)c2)C1 (stereo not drawn)
TGI (M14 melanoma): > 10 µM
TGI (MDA-N): > 10 µM
TGI (NCI-H460 lung): > 10 µM
TGI (RXF 393 renal): > 10 µM
TGI (EKVX NSCLC): > 10 µM
TGI (NCI/ADR-RES ovarian): > 10 µM
TGI (KM12 colon): > 10 µM
TGI (NCI-H226 lung): > 10 µM

CCOc1cc(C2CC(c3ccc(NS(=O)(=O)c4cc([N+](=O)[O-])ccc4C)cc3)=NN2c2ccc([N+](=O)[O-])cc2[N+](=O)[O-])ccc1O (stereo not drawn)
TGI (M14 melanoma): 31.6 µM
TGI (MDA-N): 39.5 µM
TGI (RXF 393 renal): 27 µM
TGI (EKVX NSCLC): 22 µM
TGI (NCI/ADR-RES ovarian): 63.8 µM
TGI (MDA-MB-231 breast): 20.6 µM
TGI (MDA-MB-435): > 100 µM
TGI (KM12 colon): > 100 µM
TGI (NCI-H226 lung): 24 µM

COc1ccc(/C=C2\S/C(=N/Nc3nc(-c4ccccc4)cs3)NC2=O)cc1OC
TGI (M14 melanoma): > 100 µM
TGI (MDA-N): 33.7 µM
TGI (NCI-H460 lung): > 100 µM
TGI (RXF 393 renal): 52 µM
TGI (EKVX NSCLC): 98.4 µM
TGI (NCI/ADR-RES ovarian): 49.8 µM
TGI (MDA-MB-231 breast): 75.7 µM
TGI (MDA-MB-435): 75 µM
TGI (KM12 colon): 82.2 µM

CC1(C)CC(=O)c2c(nc3ccc4ccccc4c3c2-c2ccc(NC(=O)CCCCCCCCC(=O)Nc3ccc(-c4c5c(nc6ccc7ccccc7c46)CC(C)(C)CC5=O)cc3)cc2)C1
TGI (M14 melanoma): > 100 µM
TGI (MDA-N): > 100 µM
TGI (NCI-H460 lung): > 100 µM
TGI (EKVX NSCLC): > 100 µM
TGI (NCI/ADR-RES ovarian): > 100 µM
TGI (MDA-MB-231 breast): > 100 µM
TGI (MDA-MB-435): > 100 µM
TGI (KM12 colon): > 100 µM
TGI (NCI-H226 lung): > 100 µM

COc1ccc(-c2cc(-c3cc4cc(Br)ccc4nc3Cl)c(C#N)c(N)n2)cc1
TGI (M14 melanoma): > 12.5 µM
TGI (MDA-N): > 12.5 µM
TGI (RXF 393 renal): > 12.5 µM
TGI (EKVX NSCLC): > 12.5 µM
TGI (NCI/ADR-RES ovarian): > 12.5 µM
TGI (MDA-MB-435): > 12.5 µM
TGI (KM12 colon): > 12.5 µM
TGI (NCI-H226 lung): > 12.5 µM

CCOC(=O)c1cc2c(C(=O)c3ccc([N+](=O)[O-])cc3)c(C(C)=O)ccc2[nH]1
TGI (M14 melanoma): > 100 µM
TGI (MDA-N): > 100 µM
TGI (NCI-H460 lung): > 100 µM
TGI (RXF 393 renal): 80.5 µM
TGI (EKVX NSCLC): > 100 µM
TGI (MDA-MB-231 breast): 53.4 µM
TGI (MDA-MB-435): > 100 µM
TGI (KM12 colon): > 100 µM
TGI (NCI-H226 lung): > 100 µM

COc1ccc(-c2c(C#N)c(S)n(NS(=O)(=O)c3ccc(C)cc3)c(=O)c2C#N)cc1
TGI (M14 melanoma): 52.9 µM
TGI (MDA-N): 37.5 µM
TGI (NCI-H460 lung): > 100 µM
TGI (RXF 393 renal): 42.5 µM
TGI (EKVX NSCLC): 68.3 µM
TGI (NCI/ADR-RES ovarian): 58.9 µM
TGI (MDA-MB-231 breast): 42.7 µM
TGI (KM12 colon): 77.5 µM
TGI (NCI-H226 lung): 89.5 µM

OC(CCNCc1ccccc1)c1ccc2ccccc2c1 (stereo not drawn)
TGI (M14 melanoma): > 100 µM
TGI (NCI-H460 lung): 35.1 µM
TGI (RXF 393 renal): 37.1 µM
TGI (EKVX NSCLC): > 100 µM
TGI (NCI/ADR-RES ovarian): 49.4 µM
TGI (MDA-MB-231 breast): 35.3 µM
TGI (MDA-MB-435): 44.2 µM
TGI (KM12 colon): 31.7 µM
TGI (NCI-H226 lung): 46.7 µM

N#Cc1c(-c2ccc(Cl)cc2)c2c(n(C3OC(CO)C(O)C(O)C3O)c1=S)CCC2 (stereo not drawn)
TGI (M14 melanoma): 47.2 µM
TGI (MDA-N): > 100 µM
TGI (NCI-H460 lung): > 100 µM
TGI (RXF 393 renal): 63.2 µM
TGI (NCI/ADR-RES ovarian): > 100 µM
TGI (MDA-MB-231 breast): > 100 µM
TGI (MDA-MB-435): 46.1 µM
TGI (KM12 colon): > 100 µM
